Test results: PubChem BioAssay AID1626 (SRMLSC, 2009)

Tested on: M. tuberculosis H37Rv growth inhibition
Experiment: M. tuberculosis H37Rv growth inhibitors, H37Rv strain (AID 1626)
Details: for IC90: measured here: IC90 against H37Rv; for CC50: measured here: Vero cell cytotoxicity

| Structure (SMILES) | IC50 [µM] | IC90 [µM] | CC50 [µM] |
| --- | --- | --- | --- |
| CO[C@H]1C=CO[C@@]2(C)Oc3c(C)c(O)c4c(O)c(c5c(c4c3C2=O)NC2(CCN(CC(C)C)CC2)N=5)=NC(=O)C(C)=CC=C[C@H](C)[C@H](O)[C@@H](C)[C@@H](O)[C@@H](C)[C@H](OC(C)=O)[C@@H]1C | < 0.195 | < 0.195 | > 40 |
| COc1ccc(Cn2c(SCc3ccc(C)cc3)nc3cc(OC)c(OC)cc3c2=N)cc1Cl | 2.5 | 3.09 | 3.1 |
| CC1CCN(c2nc(-c3cccnc3)nc3scc(-c4ccccc4)c23)CC1 | 5.94 | 65.3 | – |
| N#CC1=C(c2ccccc2)/C(=C/c2ccccc2)OC1=O | 17.6 | > 100 | 15.4 |
| CCCCOC(=O)c1ccc(NC(=O)CSc2nnnn2C)cc1 | 19 | > 100 | – |
| CC(C)(C)c1ccc(C(=O)CC(=O)c2cc(Cl)ccc2O)cc1 | 2.67 | 3.14 | 12.4 |
| Nc1nc(-c2ccc(F)cc2)cs1 | 23.8 | > 100 | – |
| Cc1cc(OCc2nnc(SCC(=O)OC3CCCCC3)o2)ccc1Cl | 0.372 | 2.57 | – |
| Nc1ccc(-n2ccnc2)cc1 | 41 | > 100 | – |
| CCCN(CCC)C(=O)c1cc([N+](=O)[O-])cc2c1-c1ccc([N+](=O)[O-])cc1C2=C(C#N)C#N | 8 | 9.91 | 33.6 |
| O=C1C2C3C=CC(C3)C2C(=O)N1c1ccc(-c2nc3ccccc3c(=O)o2)cc1 (stereo unspecified) | 9.33 | 23.1 | – |
| C=C1C(=O)O[C@@H]2C[C@@H](C)[C@@H]3C=CC(=O)[C@@]3(C)[C@@H](O)[C@H]12 | 3.84 | 6.64 | 1.84 |
| CCOC(=O)COc1ccc2c(=O)c(-c3ccc(OC)c(OC)c3)c(C(=O)OCC)oc2c1 | 2.51 | 5.68 | – |
| CCOC(=O)c1c(C)oc2ccc(OC(=O)c3cccs3)cc12 | 2.08 | 13.6 | – |
| O=C(/C=C/c1ccccc1)CC(=O)c1ccccc1O | 23.7 | > 100 | > 40 |
| CCc1ccc2c(c1)/C(=C/C(=O)c1cccs1)C(=O)N2 | 3.06 | 12.2 | 18.9 |
| CC(C)OC(=O)CSc1nnc(-c2ccc(Cl)cc2Cl)o1 | < 0.195 | 9.2 | – |
| O=S(=O)(c1ccc(Cl)c(Cl)c1)c1snnc1-c1ccccc1 | 2.71 | 5.42 | 3.84 |
| CCCCNC(=O)c1cc2n(n1)C(C(F)(F)F)CC(c1ccccc1)N2 (stereo unspecified) | 0.363 | 4.14 | – |
| CCOC(=O)C1CCCc2c1[nH]c1c(C(N)=O)cccc21 (stereo unspecified) | 3.38 | 29.1 | – |

| Structure (SMILES) | IC50 [µM] | IC90 [µM] | CC50 [µM] |
| --- | --- | --- | --- |
| CC(NC(=O)c1ccc(Br)cc1)c1ccc2c(c1)CCCC2 (stereo unspecified) | 15.4 | > 100 | – |
| O=C1C2C(c3ccccc3)(C(=O)N1c1ccc(Cl)cc1)C2(c1ccccc1)c1ccccc1 (stereo unspecified) | 22.4 | > 100 | > 40 |
| O=C1CSc2ccc(C(=O)Nc3cccc(S(=O)(=O)Nc4ccc(Br)cc4)c3)cc2N1 | 7.03 | 11.9 | 16.5 |
| Cc1nc(SCc2cccc(F)c2)c2oc3ccccc3c2n1 | 0.588 | 18 | – |
| O=C(/C=C/Sc1ccccc1)c1ccc(Cl)cc1 | 6.43 | 11.2 | 26.1 |
| Cc1ccc(N2CCN(C(=O)Nc3cccc([N+](=O)[O-])c3)CC2C)cc1 (stereo unspecified) | 27.1 | > 100 | > 40 |
| CCOC(=O)c1ccc(N2C(=O)c3n[nH]c(-c4ccco4)c3C2c2ccc([N+](=O)[O-])cc2)cc1 (stereo unspecified) | 9.07 | 17 | 28 |
| Cc1cc([N+](=O)[O-])ccc1NC(=O)c1ccc(NC(=O)C(C)C)cc1 | 12.3 | > 100 | – |
| CC(=O)c1sc(NC(=O)c2cc(-c3ccccc3)nn2-c2ccccc2)nc1C | 27.7 | > 100 | > 40 |
| CCCCCCOC(=O)c1ccc(NC(=O)c2cc(OC)c(OC)c(OC)c2Br)cc1 | 5.27 | 8.11 | > 40 |
| Cc1cc(=O)oc2cc(Oc3ncccc3[N+](=O)[O-])ccc12 | 9.46 | > 100 | – |
| CCOC(=O)c1ccc(N/C=C/C(=O)C(C)(C)C)cc1 | 4.61 | > 100 | – |
| CCC(=Nc1ccccc1O)C1=C(O)CC(c2ccccc2)CC1=O (stereo unspecified) | 1.51 | 1.72 | > 40 |
| O=C(c1cc2cc3ccc(Cl)cc3nc2o1)N1CCC2(CC1)OCCO2 | 3.56 | 7.22 | – |
| COc1ccc(OCCCC(=O)Nc2cccc(SC)c2)cc1 | – | > 100 | – |
| O=C(CN1CCC(C(=O)c2ccc3c(c2)OCCO3)CC1)NC1CCCC1 | – | – | > 40 |
| COC(=O)c1cc(/C=C/c2ccccc2)on1 | 1.33 | > 100 | – |
| Cc1cc(C)cc(N=c2c([N+](=O)[O-])nn(-c3cccc(Cl)c3)n2O)c1 | 4.89 | 9.8 | > 40 |
| O=C(Nc1cccnc1)c1c(O)c2cccc3c2n(c1=O)CC3 | 1.87 | 2.08 | – |
| COc1ccc(CNc2nc3nc4c(c(=O)n3[nH]2)CCC4)cc1 | 1.09 | > 100 | – |

| Structure (SMILES) | IC50 [µM] | IC90 [µM] | CC50 [µM] |
| --- | --- | --- | --- |
| CCOc1ccc(-c2nnc(NC(=O)c3ccc(OCC(C)C)c(OC)c3)o2)cc1 | 10.1 | > 100 | 25.3 |
| O=C(CSc1ccc(-c2ccccn2)nn1)c1ccc(F)cc1 | 22.2 | 36 | – |
| Cc1cccc(OCCCCCn2ccnc2)c1C | 10.6 | 11.6 | > 40 |
| Cc1cccc(C(=O)Nc2ccc(C(=O)/C=C/c3cccnc3)cc2)c1 | 6.04 | 9.07 | 22.3 |
| CCOC(=O)c1ccc(N2CN=C3SCC(=O)N3C2)cc1 | 11.9 | > 100 | – |
| O/N=C/c1ccc(-c2cc(Cl)ccc2Cl)o1 | – | > 100 | – |
| CCc1ccc(NC(=O)c2cnc(N3CCN(c4ccccn4)CC3)c3ccccc23)cc1 | 0.444 | 5.71 | > 40 |
| Cc1ccc(C(=O)Nc2nnc(-c3ccncc3)o2)cc1 | 5.94 | 6.95 | > 40 |
| O=C(Nc1ccc(CSc2ccccc2)cc1)c1ccc(CN2CCOCC2)cc1 | 32.2 | > 100 | > 40 |
| CCOC(=O)c1c(C)n(C)c2ccc(OC(C)C(=O)OC)cc12 (stereo unspecified) | 8.04 | 14.4 | – |
| CN1CCN(c2ccc(C(=O)c3cn(-c4ccc(F)c(Cl)c4)nn3)cc2)CC1 | 3.43 | > 100 | 9.78 |
| CCOC(=O)c1cnc(-n2nc(C)cc2C)nc1NCCc1ccccc1 | 0.688 | 1.06 | > 40 |
| OCCN1CCN(c2nc(-c3ccccc3)nc3c2oc2ccccc23)CC1 | 4.89 | 8.31 | 13.6 |
| CCCCC(=O)Nc1ccc2c(c1)oc1ccccc12 | – | > 100 | – |
| Cc1nc2ncccn2c1-c1csc(Nc2ccc(N(C)C)cc2)n1 | 12.8 | 16 | 3.47 |
| Cc1ccc(Cc2cnc(NC(=O)C3CCCO3)s2)cc1 (stereo unspecified) | – | > 100 | > 40 |
| COc1ccc(N=C(NN)c2ccc3ccccc3n2)cc1 | 54.6 | > 100 | – |
| COc1cccc(-c2cc(C(=O)Nc3nc4ccccc4s3)c3ccccc3n2)c1 | 8.12 | > 100 | > 40 |
